Experimental data: publication PMC9238401, “Peptide Conjugates Derived from flg15, Pep13, and PIP1 That Are Active against Plant-Pathogenic Bacteria and Trigger Plant Defense Responses” (Applied and Environmental Microbiology, 2022)
No end group written: not given here.

What was measured:
[1] = HPLC retention time as indicator of relative hydrophobicity; format: physicochemical; details: chromatographic, Kromasil 100 C18 (4.6 mm × 40 mm, 3 μm), linear gradient 2 to 100% B over 12 min, 1 mL/min; A 0.1% aqueous TFA, B 0.1% TFA in CH3CN; used as indicator of relative hydrophobicity
Description: The parameters related to the structure of the peptide conjugates (sequence, charge, hydrophobic ratio [HR], and HPLC retention time), as well as their physicochemical properties (grand average hydropathicity [GRAVY] and hydrophobic moment [<μH>]) obtained from the online programs ProtParam (Expasy server) and HeliQuest are included in Table 1.
Peptides were analyzed under standard analytical HPLC conditions. Method A: peptides were analyzed with a Dionex liquid chromatography instrument composed of a UV/Vis Dionex UVD170U detector, a P680 Dionex pump, an ASI-100 Dionex automatic injector, and Chromeleon 6.60 software. Detection was performed at a wavelength of 220 nm. Solvent A was 0.1% aqueous trifluoroacetic acid (TFA), and solvent B was 0.1% TFA in CH3CN. Analyses were carried out with a Kromasil 100 C18 (4.6 mm × 40 mm, 3 μm) column with a linear gradient of 2 to 100% B over 7 min at a flow rate of 1 mL/min. Method B: peptides were analyzed with a 1260 Infinity II liquid chromatography instrument (Agilent Technologies) composed of a diode array detector HS, a quaternary pump VL, a 1260 vial sampler, and OpenLab CDS ChemStation software. Analyses were carried out with a Kromasil 100 C18 (4.6 mm × 40 mm, 3 μm) column with a linear gradient of 2 to 100% B over 12 min at a flow rate of 1 mL/min.

[2] = tested on: Xanthomonas fragariae Xf349-9A; assay: In vitro growth inhibition (MIC); format: cell-based; details: TSB, 25°C, 48 h, OD 600 nm (Bioscreen C), three replicates, experiment repeated twice; MIC given as range
In short: (§1)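 Bacterial suspensions (10^8 CFU mL^−1, from 24 h plates at 25°C) mixed with peptide dilutions in TSB, triplicate wells. OD600 read hourly over 48 h at 25°C with shaking. MIC = lowest concentration with no growth at end of run.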

[3] = tested on: Pseudomonas syringae pv. syringae EPS94; assay: In vitro growth inhibition (MIC); format: cell-based; details: TSB, 25°C, 48 h, OD 600 nm (Bioscreen C), three replicates, experiment repeated twice; MIC given as range
In short: as §1

[4] = tested on: Pseudomonas syringae pv. actinidiae Psa3700.1.1; assay: In vitro growth inhibition (MIC); format: cell-based; details: TSB, 25°C, 48 h, OD 600 nm (Bioscreen C), three replicates, experiment repeated twice; MIC given as range
In short: as §1

[5] = tested on: Erwinia amylovora PMV6076; assay: In vitro growth inhibition (MIC); format: cell-based; details: TSB, 25°C, 48 h, OD 600 nm (Bioscreen C), three replicates, experiment repeated twice; MIC = lowest concentration with no growth, given as range
In short: as §1

[6] = tested on: Xanthomonas arboricola pv. pruni CFBP5563; assay: In vitro growth inhibition (MIC); format: cell-based; details: TSB, 25°C, 48 h, OD 600 nm (Bioscreen C), three replicates, experiment repeated twice; MIC given as range
In short: as §1

[7] = tested on: Xanthomonas axonopodis pv. vesicatoria 2133-2; details: TSB, 25°C, 48 h, OD 600 nm (Bioscreen C), three replicates, experiment repeated twice; MIC given as range
In short: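 Bacteria grown 24 h (48 h for Xanthomonas axonopodis, X. fragariae) at 25°C, suspended at 10^8 CFU mL^−1, mixed with peptide dilutions in TSB.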

[8] = tested on: plant-pathogenic bacteria (E. amylovora, X. arboricola pv. pruni, X. fragariae, X. axonopodis pv. vesicatoria, P. syringae pv. actinidiae, P. syringae pv. …); details: 24 h
tobacco leaves = assay: Effect of peptide infiltration on tobacco leaves (phytotoxicity); format: in vivo
In short: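 Peptide solutions at 50, 150 and 250 μM were infiltrated into the mesophyll of fully expanded tobacco leaves, with at least three leaves per peptide and dose on different plants. Water and equimolar melittin served as controls. Lesion diameter was measured 48 h after infiltration.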

horse erythrocytes = details: TRIS buffer pH 7.2, 1 h, 37°C, absorbance 540 nm, relative to melittin 100 μM, ± confidence interval (α = 0.05)
In short: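 Horse erythrocytes washed in 10 mM Tris, 150 mM NaCl, pH 7.2 were mixed 1:1 with compound solutions at 750, 500, 300 and 100 μM and shaken 1 h at 37°C. Hemoglobin release read at 540 nm in supernatant; % hemolysis relative to buffer and melittin control.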

[9] = 100 μL infiltrated into mesophyll, lesion diameter 48 h after infiltration, at least three leaves, ± confidence interval (α = 0.05)

VWNQPVRGFKVYEKKLFKKILKKL-NH2 [Pep13-BP16]
tR (min), HPLC retention time (method B) [1]: 5.70 min
MIC, Xf [2]: 3.1 to 6.2 µM
MIC, Pss [3]: 6.2 to 12.5 µM
MIC, Psa [4]: 1.6 to 3.1 µM
MIC, Ea [5]: 6.2 to 12.5 µM
MIC, Xap [6]: 0.8 to 1.6 µM
MIC, Xav [7]: 0.8 to 1.6 µM
MIC against all the bacteria tested (span over the six pathogens) [8]: 0.8 to 12.5 µM
Size of the lesions in infiltrated tobacco leaves at 50 μM (tobacco leaves; in vivo): 0.23 ± 0.07 cm
Size of the lesions in infiltrated tobacco leaves at 150 μM (tobacco leaves; in vivo): 0.52 ± 0.14 cm
Size of the lesions in infiltrated tobacco leaves at 250 μM (tobacco leaves; in vivo): 0.93 ± 0.19 cm
Percent hemolysis at 50 μM (horse erythrocytes): 2 ± 0.6%
Percent hemolysis at 150 μM (horse erythrocytes): 3 ± 0.2%
Percent hemolysis at 250 μM (horse erythrocytes): 4 ± 0.3%
Percent hemolysis at 375 μM (horse erythrocytes): 4 ± 0.2%

KKLFKKILKYLVWNQPVRGFKVYE [BP100-Pep13]
tR (min), HPLC retention time (method B) [1]: 5.53 min
MIC, Xf [2]: 3.1 to 6.2 µM
MIC, Pss [3]: 1.6 to 3.1 µM
MIC, Psa [4]: 0.8 to 1.6 µM
MIC, Ea [5]: 0.8 to 1.6 µM
MIC, Xap [6]: 1.6 to 3.1 µM
MIC, Xav [7]: 1.6 to 3.1 µM
MIC against four pathogens [8]: 0.8 to 3.1 µM
Size of the lesions in infiltrated tobacco leaves at 50 μM (tobacco leaves; in vivo): 0.04 ± 0.08 cm
Size of the lesions in infiltrated tobacco leaves at 150 μM (tobacco leaves; in vivo): 0.32 ± 0.11 cm
Size of the lesions in infiltrated tobacco leaves at 250 μM (tobacco leaves; in vivo): 0.42 ± 0.10 cm
Percent hemolysis at 50 μM (horse erythrocytes): 5 ± 0.3%
Percent hemolysis at 150 μM (horse erythrocytes): 12 ± 1.1%
Percent hemolysis at 250 μM (horse erythrocytes): 20 ± 2.4%
Percent hemolysis at 375 μM (horse erythrocytes): 30 ± 3.2%

VWNQPVRGFKVYEKKLFKKILKYL-NH2 [Pep13-BP100]
tR (min), HPLC retention time (method B) [1]: 6.14 min
MIC, Xf [2]: 6.2 to 12.5 µM
MIC, Pss [3]: 6.2 to 12.5 µM
MIC, Psa [4]: 3.1 to 6.2 µM
MIC, Ea [5]: 6.2 to 12.5 µM
MIC, Xap [6]: 0.8 to 1.6 µM
MIC, Xav [7]: 0.8 to 1.6 µM
MIC against all the bacteria tested (span over the six pathogens) [8]: 0.8 to 12.5 µM
Size of the lesions in infiltrated tobacco leaves at 50 μM (tobacco leaves; in vivo): 0.26 ± 0.08 cm
Size of the lesions in infiltrated tobacco leaves at 150 μM (tobacco leaves; in vivo): 0.56 ± 0.13 cm
Size of the lesions in infiltrated tobacco leaves at 250 μM (tobacco leaves; in vivo): 0.70 ± 0.15 cm
Percent hemolysis at 50 μM (horse erythrocytes): 9 ± 1.0%
Percent hemolysis at 150 μM (horse erythrocytes): 25 ± 2.4%
Percent hemolysis at 250 μM (horse erythrocytes): 45 ± 9.0%
Percent hemolysis at 375 μM (horse erythrocytes): 49 ± 9.2%

KKVVFWVKFK-RINSAKDDAAGLQIA-OH [KSLW-flg15]
tR (min), HPLC retention time (method B) [1]: 4.75 min
MIC, Xf [2]: 12.5 to 25 µM
MIC, Pss [3]: > 50 µM
MIC, Psa [4]: > 50 µM
MIC, Ea [5]: > 50 µM
MIC, Xap [6]: > 50 µM
MIC, Xav [7]: 6.2 to 12.5 µM
Size of the lesions in infiltrated tobacco leaves at 50 μM (tobacco leaves; [9]): 0 ± 0 cm
Size of the lesions in infiltrated tobacco leaves at 150 μM (tobacco leaves; [9]): 0.13 ± 0.09 cm
Size of the lesions in infiltrated tobacco leaves at 250 μM (tobacco leaves; [9]): 0.26 ± 0.05 cm
Percent hemolysis at 50 μM (horse erythrocytes): 4 ± 1.9%
Percent hemolysis at 150 μM (horse erythrocytes): 7 ± 3.4%
Percent hemolysis at 250 μM (horse erythrocytes): 8 ± 0.9%
Percent hemolysis at 375 μM (horse erythrocytes): 8 ± 2.7%

H-YGIHTHKKVVFWVKFK-NH2 [PIP1-KSLW]
tR (min), HPLC retention time (method B) [1]: 4.81 min
MIC, Xf [2]: 6.2 to 12.5 µM
MIC, Pss [3]: 6.2 to 12.5 µM
MIC, Psa [4]: 6.2 to 12.5 µM
MIC, Ea [5]: 12.5 to 25 µM
MIC, Xap [6]: 3.1 to 6.2 µM
MIC, Xav [7]: 3.1 to 6.2 µM
Size of the lesions in infiltrated tobacco leaves at 50 μM (tobacco leaves; in vivo): 0 ± 0 cm
Size of the lesions in infiltrated tobacco leaves at 150 μM (tobacco leaves; in vivo): 0.47 ± 0.24 cm
Size of the lesions in infiltrated tobacco leaves at 250 μM (tobacco leaves; in vivo): 0.70 ± 0.11 cm
Percent hemolysis at 50 μM (horse erythrocytes): 7 ± 0.8%
Percent hemolysis at 150 μM (horse erythrocytes): 7 ± 1.1%
Percent hemolysis at 250 μM (horse erythrocytes): 6 ± 0.4%
Percent hemolysis at 375 μM (horse erythrocytes): 6 ± 0.4%

H-RINSAKDDAAGLQIAKKLFKKILKKL-NH2 [flg15-BP16]
tR (min), HPLC retention time (method B) [1]: 5.89 min
MIC, Xf [2]: 1.6 to 3.1 µM
MIC, Pss [3]: 6.2 to 12.5 µM
MIC, Psa [4]: 3.1 to 6.2 µM
MIC, Ea [5]: 3.1 to 6.2 µM
MIC, Xap [6]: 3.1 to 6.2 µM
MIC, Xav [7]: 1.6 to 3.1 µM
Size of the lesions in infiltrated tobacco leaves at 50 μM (tobacco leaves; [9]): 0.20 ± 0.12 cm
Size of the lesions in infiltrated tobacco leaves at 150 μM (tobacco leaves; [9]): 0.49 ± 0.13 cm
Size of the lesions in infiltrated tobacco leaves at 250 μM (tobacco leaves; [9]): 0.42 ± 0.11 cm
Percent hemolysis at 50 μM (horse erythrocytes): 2 ± 0.1%
Percent hemolysis at 150 μM (horse erythrocytes): 3 ± 0.2%
Percent hemolysis at 250 μM (horse erythrocytes): 4 ± 0.9%
Percent hemolysis at 375 μM (horse erythrocytes): 5 ± 0.3%

H-KKVVFWVKFKYGIHTH-NH2 [KSLW-PIP1]
tR (min), HPLC retention time (method B) [1]: 4.83 min
MIC, Xf [2]: 3.1 to 6.2 µM
MIC, Pss [3]: > 50 µM
MIC, Psa [4]: > 50 µM
MIC, Ea [5]: > 50 µM
MIC, Xap [6]: 3.1 to 6.2 µM
MIC, Xav [7]: 3.1 to 6.2 µM
Size of the lesions in infiltrated tobacco leaves at 50 μM (tobacco leaves; in vivo): 0.17 ± 0.17 cm
Size of the lesions in infiltrated tobacco leaves at 150 μM (tobacco leaves; in vivo): 0.53 ± 0.07 cm
Size of the lesions in infiltrated tobacco leaves at 250 μM (tobacco leaves; in vivo): 0.97 ± 0.28 cm
Percent hemolysis at 50 μM (horse erythrocytes): 8 ± 1.3%
Percent hemolysis at 150 μM (horse erythrocytes): 3 ± 2.1%
Percent hemolysis at 250 μM (horse erythrocytes): 3 ± 1.2%
Percent hemolysis at 375 μM (horse erythrocytes): 5 ± 4.9%
